From patent publication US20100311714A1, “1H-IMIDAZO[4,5-c]QUINOLINONE COMPOUNDS” (priority 2009, published 2010)
≈ marks a conversion by molar mass, not a printed value. Where two headings read alike, the source gives them in different places.

How the values were obtained:
PI3K alfa = molecular target: T1, PI3K alfa (Homo sapiens, UniProt P42336); test: PI3K alpha kinase assay (Kinase-Glo luminescence); type: biochemical
T1 construct: His tag (C); made in house; host or cells: baculovirus BV1075; Tn5 (Trichoplusia ni) or TiniPro insect cells
Procedure, shortened: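 IC50 values come from a four-parameter logistic fit of percent inhibition at eight concentrations, typically 10 to 0.003 μM. Recombinant PI3Kα at 10 nM turned over 1 μM ATP with 10 μg/mL PI for 60 min at room temperature, and residual ATP was measured by Kinase-Glo.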

PI3K delta = molecular target: T2, PI3K delta (Homo sapiens, UniProt O00329); test: PI3K delta kinase assay (Kinase-Glo luminescence); type: biochemical
T2 construct: for the full-length p110-d subunit are generated and fused by overlapping PCR; His tag (C); made in house; host or cells: baculovirus BV1060; Tn5 (Trichoplusia ni) or TiniPro insect cells
Procedure, shortened: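 IC50s derive from 8-point inhibition curves fitted to a 4-parameter logistic model. Reaction: 10 nM purified p110δ/p85 iSH2 fusion, 1 μM ATP, 10 μg/mL PI substrate, pH 7.5 Tris buffer with MgCl2, NaCl, CHAPS and DTT, run 60 min at room temperature; remaining ATP read by Kinase-Glo luminescence.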

[1] = High-throughput equilibrium solubility at pH 6.8; type: physicochemical; conditions: pH 6.8, aqueous buffer, thermodynamic from solid; read-out: HT-Eq Sol/pH 6.8
Procedure, shortened: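 Following the procedure of Zhou et al. (2007), compound solubility was determined at pH 6.8.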

T1 sequence (P42336 with tags, fused parts or gaps limits assumed): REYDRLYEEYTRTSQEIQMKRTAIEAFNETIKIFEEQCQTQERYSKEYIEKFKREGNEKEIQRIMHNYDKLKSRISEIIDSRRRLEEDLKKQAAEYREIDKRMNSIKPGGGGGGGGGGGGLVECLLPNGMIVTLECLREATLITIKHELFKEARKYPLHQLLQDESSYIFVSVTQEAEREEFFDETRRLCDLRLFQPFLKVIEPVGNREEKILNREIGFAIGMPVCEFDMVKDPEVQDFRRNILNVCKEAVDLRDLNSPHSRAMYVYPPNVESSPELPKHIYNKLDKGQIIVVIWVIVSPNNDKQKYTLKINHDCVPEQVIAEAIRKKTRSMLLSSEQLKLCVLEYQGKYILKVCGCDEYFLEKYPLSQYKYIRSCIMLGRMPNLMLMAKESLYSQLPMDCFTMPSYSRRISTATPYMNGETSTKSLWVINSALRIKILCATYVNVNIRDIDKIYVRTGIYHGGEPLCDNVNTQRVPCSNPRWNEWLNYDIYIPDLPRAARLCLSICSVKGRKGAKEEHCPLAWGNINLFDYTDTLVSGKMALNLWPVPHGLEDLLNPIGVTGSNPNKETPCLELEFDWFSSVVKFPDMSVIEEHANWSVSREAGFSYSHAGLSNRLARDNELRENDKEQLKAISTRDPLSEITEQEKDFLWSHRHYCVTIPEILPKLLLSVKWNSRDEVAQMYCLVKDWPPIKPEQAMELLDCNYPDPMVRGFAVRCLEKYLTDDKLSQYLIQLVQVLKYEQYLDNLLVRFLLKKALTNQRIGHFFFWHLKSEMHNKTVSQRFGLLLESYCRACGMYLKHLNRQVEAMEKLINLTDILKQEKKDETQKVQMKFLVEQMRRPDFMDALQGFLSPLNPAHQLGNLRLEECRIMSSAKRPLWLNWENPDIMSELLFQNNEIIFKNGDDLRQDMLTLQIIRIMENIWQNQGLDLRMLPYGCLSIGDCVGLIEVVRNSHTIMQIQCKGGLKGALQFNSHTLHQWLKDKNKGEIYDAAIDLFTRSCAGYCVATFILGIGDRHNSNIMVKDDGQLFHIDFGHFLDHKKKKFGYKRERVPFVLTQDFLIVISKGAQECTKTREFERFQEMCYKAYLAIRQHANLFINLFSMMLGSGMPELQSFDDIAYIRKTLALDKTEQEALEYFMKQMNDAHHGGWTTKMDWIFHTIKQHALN
T2 sequence (O00329 with tags, fused parts or gaps limits assumed): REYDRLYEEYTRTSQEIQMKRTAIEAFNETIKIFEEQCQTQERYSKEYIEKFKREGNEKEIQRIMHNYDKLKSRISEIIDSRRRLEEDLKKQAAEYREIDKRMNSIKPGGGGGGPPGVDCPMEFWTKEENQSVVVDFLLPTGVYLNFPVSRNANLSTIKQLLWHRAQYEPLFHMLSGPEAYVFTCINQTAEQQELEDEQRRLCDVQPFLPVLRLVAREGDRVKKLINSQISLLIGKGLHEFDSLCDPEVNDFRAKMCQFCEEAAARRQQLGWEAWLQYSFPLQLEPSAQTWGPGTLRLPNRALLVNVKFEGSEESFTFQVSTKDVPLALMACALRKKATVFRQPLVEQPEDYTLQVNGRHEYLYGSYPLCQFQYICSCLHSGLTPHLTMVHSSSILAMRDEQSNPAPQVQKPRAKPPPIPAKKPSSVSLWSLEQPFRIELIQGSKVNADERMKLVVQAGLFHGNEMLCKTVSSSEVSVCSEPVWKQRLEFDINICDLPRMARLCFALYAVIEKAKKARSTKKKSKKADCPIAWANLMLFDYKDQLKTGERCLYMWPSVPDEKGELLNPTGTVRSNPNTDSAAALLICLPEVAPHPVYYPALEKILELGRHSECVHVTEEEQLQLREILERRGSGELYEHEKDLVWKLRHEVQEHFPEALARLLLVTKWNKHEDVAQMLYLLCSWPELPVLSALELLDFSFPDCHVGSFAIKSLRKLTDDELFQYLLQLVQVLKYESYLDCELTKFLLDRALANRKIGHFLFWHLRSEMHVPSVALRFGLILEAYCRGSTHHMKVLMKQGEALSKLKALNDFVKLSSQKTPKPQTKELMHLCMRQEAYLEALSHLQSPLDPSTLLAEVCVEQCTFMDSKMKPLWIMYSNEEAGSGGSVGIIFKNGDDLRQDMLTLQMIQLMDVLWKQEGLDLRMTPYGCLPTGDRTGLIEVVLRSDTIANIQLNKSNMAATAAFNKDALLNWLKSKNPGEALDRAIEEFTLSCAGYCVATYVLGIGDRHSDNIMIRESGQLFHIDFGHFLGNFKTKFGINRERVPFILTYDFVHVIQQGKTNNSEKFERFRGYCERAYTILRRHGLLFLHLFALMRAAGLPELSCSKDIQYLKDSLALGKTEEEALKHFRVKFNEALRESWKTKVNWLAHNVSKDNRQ

| Compound | IC50 (PI3K alfa; read-out: PI3Kalfa/IC50) | IC50 (PI3K delta; read-out: PI3Kdelta/IC50) | solubility thermodynamic [1] | IC50 (PI3K alfa; read-out: EPK_PI3Kalfa/IC50) | IC50 (PI3K delta; read-out: EPK_PI3Kdelta/IC50) |
| --- | --- | --- | --- | --- | --- |
| Cc1nc(F)ccc1-n1c(=O)n(C)c2cnc3ccc(-c4cnc5c(ccn5C)c4)cc3c21 [Example 7.2, 1-(6-Fluoro-2-methyl-pyridin-3-yl)-3-methyl-8-(1-methyl-1H-pyrrolo[2,3-b]pyridin-5-yl)-1,3-dihydro-imidazo[4,5-c]quinolin-2-one] | 0.032 µM | 0.031 µM | 3 µg/mL (≈ 6.84 µM) | – | – |
| Cc1nc(N2CC[C@H](O)C2)ccc1-n1c(=O)n(C)c2cnc3ccc(-c4cncc(OC(C)C)c4)cc3c21 [Example 32.8, 1-[6-((S)-3-Hydroxy-pyrrolidin-1-yl)-2-methyl-pyridin-3-yl]-8-(5-isopropoxy-pyridin-3-yl)-3-methyl-1,3-dihydro-imidazo[4,5-c]quinolin-2-one] | – | – | 120 µg/mL (≈ 235 µM) | 0.071 µM | 0.039 µM |
| Cc1ncccc1-n1c(=O)n(C)c2cnc3ccc(-c4cncc(NC(C)C)c4)cc3c21 [Example 2.24, 8-(5-Isopropylamino-pyridin-3-yl)-3-methyl-1-(2-methyl-pyridin-3-yl)-1,3-dihydro-imidazo[4,5-c]quinolin-2-one] | – | – | 196 µg/mL (≈ 462 µM) | 0.028 µM | 0.031 µM |
| CCOc1ccc(-c2ccc3ncc4c(c3c2)n(-c2cnccc2C)c(=O)n4C)cn1 [Example 4.2, 8-(6-Ethoxy-pyridin-3-yl)-3-methyl-1-(4-methyl-pyridin-3-yl)-1,3-dihydro-imidazo[4,5-c]quinolin-2-one] | 0.206 µM | 0.401 µM | 50 µg/mL (≈ 122 µM) | – | – |
| CNc1ccc(-c2ccc3ncc4c(c3c2)n(-c2ccc(F)nc2C)c(=O)n4C)cn1 [Example 7.4, 1-(6-Fluoro-2-methyl-pyridin-3-yl)-3-methyl-8-(6-methylamino-pyridin-3-yl)-1,3-dihydro-imidazo[4,5-c]quinolin-2-one] | 0.027 µM | 0.021 µM | 11 µg/mL (≈ 26.5 µM) | – | – |
| Cc1nc(C(C)(C)O)ccc1-n1c(=O)n(C)c2cnc3ccc(-c4cncc(C5(C#N)CCC5)c4)cc3c21 [Example 31.8, 1-(5-{1-[6-(1-Hydroxy-1-methyl-ethyl)-2-methyl-pyridin-3-yl]-3-methyl-2-oxo-2,3-dihydro-1H-imidazo[4,5-c]quinolin-8-yl}-pyridin-3-yl)-cyclobutanecarbonitrile] | – | – | 111 µg/mL (≈ 220 µM) | 0.031 µM | 0.007 µM |
| COc1ccc(-c2ccc3ncc4c(c3c2)n(-c2cnccc2C)c(=O)n4C)cn1 [Example 4.3, 8-(6-Methoxy-pyridin-3-yl)-3-methyl-1-(4-methyl-pyridin-3-yl)-1,3-dihydro-imidazo[4,5-c]quinolin-2-one] | 0.073 µM | 0.12 µM | 129 µg/mL (≈ 325 µM) | – | – |
| COc1ccc(-c2ccc3ncc4c(c3c2)n(-c2cccnc2C)c(=O)n4C)cn1 [Example 2.12, 8-(6-Methoxy-pyridin-3-yl)-3-methyl-1-(2-methyl-pyridin-3-yl)-1,3-dihydro-imidazo[4,5-c]quinolin-2-one] | 0.026 µM | 0.032 µM | 27 µg/mL (≈ 67.9 µM) | – | – |
| CCNc1ncc(-c2ccc3ncc4c(c3c2)n(-c2ccc(C(C)(C)O)nc2C)c(=O)n4C)cn1 [Example 31.7, 8-(2-Ethylamino-pyrimidin-5-yl)-1-[6-(1-hydroxy-1-methyl-ethyl)-2-methyl-pyridin-3-yl]-3-methyl-1,3-dihydro-imidazo[4,5-c]quinolin-2-one] | – | – | 14 µg/mL (≈ 29.8 µM) | 0.075 µM | 0.027 µM |
| CCOc1cc(-c2ccc3ncc4c(c3c2)n(-c2ccc(F)nc2C)c(=O)n4C)cnc1COC [Example 7.5, 8-(5-Ethoxy-6-methoxymethyl-pyridin-3-yl)-1-(6-fluoro-2-methyl-pyridin-3-yl)-3-methyl-1,3-dihydro-imidazo[4,5-c]quinolin-2-one] | – | – | 94 µg/mL (≈ 199 µM) | 0.094 µM | 0.078 µM |
| COCc1ncc(-c2ccc3ncc4c(c3c2)n(-c2ccc(N3CCC3)nc2C)c(=O)n4C)cc1OC(C)C [Example 23.2, 1-(6-Azetidin-1-yl-2-methyl-pyridin-3-yl)-8-(5-isopropoxy-6-methoxymethyl-pyridin-3-yl)-3-methyl-1,3-dihydro-imidazo[4,5-c]quinolin-2-one] | – | – | 264 µg/mL (≈ 503 µM) | 0.033 µM | 0.031 µM |
| Cn1c(=O)n(-c2cccnc2)c2c3cc(-c4ccc(CO)nc4)ccc3ncc21 [Example 5.1, 8-(6-Hydroxymethyl-pyridin-3-yl)-3-methyl-1-pyridin-3-yl-1,3-dihydro-imidazo[4,5-c]quinolin-2-one] | 0.074 µM | 0.088 µM | 15 µg/mL (≈ 39.1 µM) | – | – |
| Cc1nc(N2CCC2)ccc1-n1c(=O)n(C)c2cnc3ccc(-c4cncc(OC(C)C)c4)cc3c21 [Example 23.9, 1-(6-Azetidin-1-yl-2-methyl-pyridin-3-yl)-8-(5-isopropoxy-pyridin-3-yl)-3-methyl-1,3-dihydro-imidazo[4,5-c]quinolin-2-one] | – | – | 35 µg/mL (≈ 72.8 µM) | 0.033 µM | 0.032 µM |
| Cc1cccnc1-n1c(=O)n(C)c2cnc3ccc(-c4cnc(N)c(C(F)(F)F)c4)cc3c21 [Example 3.12, 8-(6-Amino-5-trifluoromethyl-pyridin-3-yl)-3-methyl-1-(3-methyl-pyridin-2-yl)-1,3-dihydro-imidazo[4,5-c]quinolin-2-one] | 0.016 µM | 0.021 µM | 12 µg/mL (≈ 26.6 µM) | – | – |
| COCc1ncc(-c2ccc3ncc4c(c3c2)n(-c2ccc(N3CCC3)nc2C)c(=O)n4C)cc1OC [Example 23.6, 1-(6-Azetidin-1-yl-2-methyl-pyridin-3-yl)-8-(5-methoxy-6-methoxymethyl-pyridin-3-yl)-3-methyl-1,3-dihydro-imidazo[4,5-c]quinolin-2-one] | – | – | 21 µg/mL (≈ 42.3 µM) | 0.044 µM | 0.046 µM |
| CNc1ncc(-c2ccc3ncc4c(c3c2)n(-c2ccc(N3CC(F)(F)C3)nc2C)c(=O)n4C)cn1 [Example 24.1, 1-[6-(3,3-Difluoro-azetidin-1-yl)-2-methyl-pyridin-3-yl]-3-methyl-8-(2-methylamino-pyrimidin-5-yl)-1,3-dihydro-imidazo[4,5-c]quinolin-2-one] | – | – | 59 µg/mL (≈ 121 µM) | 0.049 µM | 0.164 µM |
| Cc1nc(F)ccc1-n1c(=O)n(C)c2cnc3ccc(-c4cncc(C(C)(C)O)c4)cc3c21 [Example 7.8, 1-(6-Fluoro-2-methyl-pyridin-3-yl)-8-[5-(1-hydroxy-1-methyl-ethyl)-pyridin-3-yl]-3-methyl-1,3-dihydro-imidazo[4,5-c]quinolin-2-one] | – | – | 372 µg/mL (≈ 839 µM) | 0.021 µM | 0.038 µM |
| COc1cc(-c2ccc3ncc4c(c3c2)n(-c2cccnc2C)c(=O)n4C)cnc1C(OC)OC [Example 2.27, 8-(6-Dimethoxymethyl-5-methoxy-pyridin-3-yl)-3-methyl-1-(2-methyl-pyridin-3-yl)-1,3-dihydro-imidazo[4,5-c]quinolin-2-one] | – | – | > 472 µg/mL | 0.08 µM | 0.406 µM |
| CCNc1ncc(-c2ccc3ncc4c(c3c2)n(-c2ccc(N3CC[C@@H](O)C3)nc2C)c(=O)n4C)cc1COCC [Example 34.4, 8-(5-Ethoxymethyl-6-ethylamino-pyridin-3-yl)-1-[6-((R)-3-hydroxy-pyrrolidin-1-yl)-2-methyl-pyridin-3-yl]-3-methyl-1,3-dihydro-imidazo[4,5-c]quinolin-2-one] | – | – | 172 µg/mL (≈ 311 µM) | 0.0655 µM | 0.026 µM |
